Measured values as given in paper PMC7144554, “2-(Arylamino)-6-(trifluoromethyl)nicotinic Acid Derivatives: New HIV-1 RT Dual Inhibitors Active on Viral Replication” (Molecules, 2020).
Read-outs that look alike come from different tables or passages of the source.

Experiments:
[1] = target: T1, HIV-1 RT-associated RNase H activity (wt RT) (Human immunodeficiency virus type 1 group M subtype B, UniProt P04585); test: HIV-1 DNA polymerase-independent RNase H activity, wt RT; type: biochemical; conditions: for IC50: RNase H IC50, wt RT
T1 construct: RT is a heterodimeric (p66/p51) multifunctional enzyme; made in house; host or cells: Escherichia coli strain M15
Description: p6HRT-prot vector was kindly provided by Dr. Stuart Le Grice Laboratory. Heterodimeric RT was expressed essentially as described. Briefly, Escherichia coli strain M15 containing the p6HRT-prot vector were grown up to an OD600 of 0.7 and induced with isopropyl β-D-1-thiogalactopyranoside (IPTG) 1.7 mM for 4 h. Cell pellets were resuspended in Lysis buffer (50 mM sodium phosphate pH 7.8, 0.5 mg/mL lysozyme), incubated on ice for 20 min, added 0.3 M final NaCl, sonicated and centrifuged at 30,000× g for 1 h. The supernatant was loaded into a Ni^2+-sepharose column pre-equilibrated with loading buffer (50 mM sodium phosphate pH 7.8, 0.3 M NaCl, 10% glycerol, 10 mM imidazole) and washed thoroughly with wash buffer (50 mM sodium phosphate pH 6.0, 0.3 M NaCl, 10% glycerol, 80 mM imidazole). RT was gradient-eluted with elute buffer (wash buffer with 0.5 M imidazole). Fractions were collected, protein purity was checked by SDS-PAGE and found to be higher than 90%. RT containing fractions were pooled and diluted 1:1 with dilute buffer (50 mM sodium phosphate pH 7.0, 10% glycerol) then loaded into a Hi-trap Heparine HP GE (Healthcare Lifescience) pre-equilibrated with 10-column volume of loading buffer 2 (50 mM sodium phosphate pH 7.0, 10% glycerol, 150 mM NaCl). Column was then washed with loading buffer 2 and RT was gradient-eluted with elute buffer 2 (50 mM sodium phosphate pH 7.0, 10% glycerol, 150 mM NaCl). Fractions were collected, protein was dialyzed and stored in buffer containing 50 mM Tris HCl pH 7.0, 25 mM NaCl, 1 mM EDTA, 50% glycerol. Catalytic activities and protein concentration were determined. Enzyme-containing fractions were pooled and aliquots were stored at −80 °C.
(§1) The RT-associated RNase H activity of wt and mutated HIV RTs was measured as described, in 100 µL reaction volume containing 50 mM Tris HCl pH 7.8, 6 mM MgCl2, 1 mM dithiothreitol (DTT), 80 mM KCl, hybrid RNA/DNA (5’-[…]-3’-Fluorescein, 5’-[…]-3’-Dabcyl), and different amounts of enzymes according to a linear range of dose-response curve—20 ng of wt RT; 50 ng K103N RT; 100 ng V108A RT; 4 ng Y181C RT; 100 ng Q475A RT; 100 ng A502F RT. The reaction mixture was incubated for 1 h at 37 °C, the reaction was stopped by addition of EDTA and products were measured with a Victor 3 (Perkin) at 490/528 nm.

HIV-1 IIIB strain = test: Antiviral assay, HIV-1 replication in TZMbl cells (luciferase); type: cell-based; conditions: for EC50: read-out: HIV-1 EC50 TZMbl Cells
Description: Drug-mediated inhibition of virus-induced cytotoxicity was assayed in TZM-BL cells. […] Serial dilutions of drugs were added immediately after infection. Luciferase activity was measured as reported [67]. Two days after infection, the culture medium was removed from each well and 100 µl of Bright Glo reagent (Promega, Luis Obispo, CA) was added to the cells for measurement of luminescence using a Victor 2 luminometer (Perkin). […] Cell viability in CEM cells was quantified 5 days after infection with the MTT-dye reduction method.

[2] = Cytotoxicity in TZMbl cells; type: cell-based; conditions: human
[3] = Cell viability in CEM cells (MTT); type: cell-based; conditions: human, MTT, 5 days
Description: (§2) Drug-mediated inhibition of virus-induced cytotoxicity was assayed in TZM-BL cells. Triplicate wells of 96-well plates containing 1 × 10^4 TZMbl cells were infected with HIV-1 IIIB strain at a multiplicity of infection of 0.1. Serial dilutions of drugs were added immediately after infection. Luciferase activity was measured as reported. Two days after infection, the culture medium was removed from each well and 100 µl of Bright Glo reagent (Promega, Luis Obispo, CA) was added to the cells for measurement of luminescence using a Victor 2 luminometer (Perkin). The 50% effective concentration (EC50) was defined as the concentration that caused a 50% reduction of luciferase activity (relative light units) compared to virus control wells. Cell viability in CEM cells was quantified 5 days after infection with the MTT-dye reduction method.

CEM cells = test: Cell viability in CEM cells (MTT); type: cell-based; conditions: highest concentration tested
Description: as §2

TZMbl cells = test: Cytotoxicity in TZMbl cells; type: cell-based; conditions: highest concentration tested
[4] = target: T2, V108A RT RNase H function (Human immunodeficiency virus type 1 group M subtype B, UniProt P04585, V695A); test: RNase H activity of mutated RT V108A; type: biochemical, HIV-1; conditions: read-out: RNase H IC50; V108A RT
T2 construct: Amino acid substitutions were introduced into the p66 HIV-1 RT subunit coded in a p6HRT-prot plasmid; made in house; host or cells: Escherichia coli strain M15
Description: (§3) Amino acid substitutions were introduced into the p66 HIV-1 RT subunit coded in a p6HRT-prot plasmid using the QuikChange protocol (Agilent Technologies Inc., Santa Clara, CA).
as §1

[5] = target: T3, Q475A RT RNase H function (Human immunodeficiency virus type 1 group M subtype B, UniProt P04585, Q1062A); test: RNase H activity of mutated RT Q475A; type: biochemical, HIV-1
T3 construct: Amino acid substitutions were introduced into the p66 HIV-1 RT subunit coded in a p6HRT-prot plasmid; made in house; host or cells: Escherichia coli strain M15
Description: as §3, §1

[6] = target: T4, A502F RT RNase H function (Human immunodeficiency virus type 1 group M subtype B, UniProt P04585, A1089F); test: RNase H activity of mutated RT A502F; type: biochemical, HIV-1; conditions: A502F RT
T4 construct: Amino acid substitutions were introduced into the p66 HIV-1 RT subunit coded in a p6HRT-prot plasmid; made in house; host or cells: Escherichia coli strain M15
Description: as §3, §1

[7] = Human immunodeficiency virus 1, TZM-bl, TZMbl cells, HIV-1 IIIB

| SMILES | IC50 [1] [µM] | EC50 (HIV-1 IIIB strain; [7]) [µM] | CC50 [2] [µM] | CC50 at 5 days [3] [µM] | percentage of cells viability in presence of the highest concentration of inhibitor tested, CEM cells (CEM cells) [%] | melting point [°C] | percentage of cells viability in presence of the highest concentration of inhibitor tested, TZMbl (TZMbl cells) [%] | SI (selectivity index) (HIV-1 IIIB strain; TZMbl cells) | RNase H Fold ([1]; WT RT) | IC50 [4] [µM] | IC50 [5] [µM] | RNase H Fold ([5]; Q475A RT, vs wt RT) | IC50 ([6]; read-out: RNase H IC50) [µM] | RNase H Fold ([6]; vs wt RT) | EC50 (HIV-1 IIIB strain; Human immunodeficiency virus 1, IIIB, TZM-bl) [µM] |
| --- | --- | --- | --- | --- | --- | --- | --- | --- | --- | --- | --- | --- | --- | --- | --- |
| COc1ccccc1CNC(=O)c1ccc(C(F)(F)F)nc1Nc1cc(Cl)ccc1C [Compound 39, 2-((5-Chloro-2-methylphenyl)amino)-N-(2-methoxybenzyl)-6-(trifluoromethyl)nicotinamide] | 18.7 ± 1.7 | > 10 | 14.8 ± 3.1 | > 12.5 | 55 | 148 to 150 |  |  |  |  |  |  |  |  |  |
| Cc1ccc(Cl)cc1Nc1nc(C(F)(F)F)ccc1C(=O)Oc1cccc(O)c1 [Compound 17, 3-Hydroxyphenyl 2-((5-chloro-2-methylphenyl)amino)-6-(trifluoromethyl)nicotinate] | 26.6 ± 5.6 | > 50 | > 50 | > 50 | 100 | 188 to 190 | 62 |  |  |  |  |  |  |  |  |
| Cc1ccc(Cl)cc1Nc1nc(C(F)(F)F)ccc1C(=O)Oc1ccc(Cl)cc1 [Compound 13] | 9.3 ± 2.5 | 10 | 36 ± 1 | > 50 | 70 |  |  | 3.6 |  |  |  |  |  |  |  |
| Cc1ccc(Cl)cc1Nc1nc(C(F)(F)F)ccc1C(=O)N1CCN(c2ccc(Cl)c(Cl)c2)CC1 [Compound 52, (2-((5-Chloro-2-methylphenyl)amino)-6-(trifluoromethyl)pyridin-3-yl)(4-(3,4-dichlorophenyl)piperazin-1-yl)methanone] | 7.5 ± 2 | 10 ± 1.2 | 15.7 ± 5.1 | > 50 | 76 | 165 to 167 |  | 1.6 |  |  |  |  |  |  |  |
| CC(C)c1ccc(O)c(=O)c(O)c1 [BTP, beta-Thujaplicinol, reference compound] |  |  |  |  |  |  |  |  | 1 | 0.34 ± 0.4 | 0.19 ± 0.03 | 1.0 | 0.17 ± 0.03 | 0.9 |  |
| CCOC(=O)c1ccc(C(F)(F)F)nc1Nc1cc(Cl)ccc1C [Compound 9] | 24 ± 1.7 | > 10 | > 50 | > 50 | 100 |  | 75 |  |  |  |  |  |  |  |  |
| CSc1ccc(OC(=O)c2ccc(C(F)(F)F)nc2Nc2cc(Cl)ccc2C)cc1 [Compound 24, 4-(Methylthio)phenyl 2-((5-chloro-2-methylphenyl)amino)-6-(trifluoromethyl)nicotinate] | 9.6 ± 0.8 | > 10 | 50 | > 50 | 100 | 125 to 127 |  |  |  |  |  |  |  |  |  |
| COc1ccc(OC(=O)c2ccc(C(F)(F)F)nc2Nc2cc(Cl)ccc2C)cc1 [Compound 23] | 11.6 ± 4.3 | > 10 | > 50 | > 50 | 100 |  | 70 |  |  |  |  |  |  |  |  |
| Cc1ccc(Cl)cc1Nc1nc(C(F)(F)F)ccc1C(=O)Oc1ccccc1O [Compound 16, 2-Hydroxyphenyl 2-((5-chloro-2-methylphenyl)amino)-6-(trifluoromethyl)nicotinate] | 16.2 ± 6.6 | > 10 | 12.2 ± 2.1 | > 12.5 | 100 | 179 to 180 |  |  |  |  |  |  |  |  |  |
| Cc1ccc(Cl)cc1Nc1nc(C(F)(F)F)ccc1C(=O)NCc1ccc(Cl)c(Cl)c1 [Compound 46, 2-((5-Chloro-2-methylphenyl)amino)-N-(3,4-dichlorobenzyl)-6-(trifluoromethyl)nicotinamide] | 25.6 ± 3.4 | > 6.3 | 6.3 ± 1.3 | 10.6 |  | 179 to 180 |  |  |  |  |  |  |  |  |  |
| Cc1ccc(Cl)cc1Nc1nc(C(F)(F)F)ccc1C(=O)NCc1ccc(C(F)(F)F)cc1 [Compound 42, 2-((5-Chloro-2-methylphenyl)amino)-6-(trifluoromethyl)-N-(4-(trifluoromethyl)benzyl)nicotinamide] | 21.9 ± 0.2 | > 3.6 | 3.6 ± 1.2 | 5 |  | 170 to 171 |  |  |  |  |  |  |  |  |  |
| O=C1Nc2ccc(Cl)cc2[C@@](C#CC2CC2)(C(F)(F)F)O1 [EFV, efavirenz, reference compound] |  |  | > 50 | > 50 | 100 |  | 100 |  |  |  |  |  |  |  | 0.15 ± 0.02 |
| COc1cc(CNC(=O)c2ccc(C(F)(F)F)nc2Nc2cc(Cl)ccc2C)ccc1O [Compound 47, 2-((5-Chloro-2-methylphenyl)amino)-N-(4-hydroxy-3-methoxybenzyl)-6-(trifluoromethyl)nicotinamide] | 18.2 ± 1.7 | > 10 | 15 ± 3 | 17.4 |  | 142 to 143 |  |  |  |  |  |  |  |  |  |
